Experimental findings from patent US20240316017A1, “NOVEL PYRIDINE DERIVATIVE COMPOUND AS RON INHIBITOR” (LG CHEM, LTD., priority 2021, published 2024) are described below.

Experiment [1] concerns the target RON (Homo sapiens, UniProt Q04912). Nature of the experiment: Evaluation of inhibitory activity against RON (TR-FRET kinase assay). Format: biochemical. Particulars: RON protein, ULight-labeled Poly GT substrate. The procedure: In order to measure the inhibitory activity of each of the compounds of Examples against RON, the IC50 of each of the compounds was measured using Time-resolved fluorescence energy transfer (TR-FRET).
Specifically, the compound was prepared to a concentration of 1 mM in 100% DMSO and was diluted 10 times in a stepwise manner through 3-fold dilution. The compound (2 ul) diluted in a stepwise manner was added to a 96-well-plate containing 48 ul of a 1× kinase reaction buffer (50 mM HEPES (pH 7.4), 0.01% Tween-20, 5 mM DTT, 0.5 mM Na3VO4, 2 mM EGTA, 10 mM MgCl2).
The RON protein was diluted to a concentration of 49.3 nM in a RON storage buffer (50 mM Tris-HCl (pH 7.5), 150 mM NaCl, 0.5 mM EDTA, 0.02% Triton X-100), and then diluted again to a concentration of 0.4 nM in a 1×kinase reaction buffer. As a substrate cocktail, a RON-specific substrate mixed solution (40 uM ULight-labeled Poly GT, 100 nM ATP) was prepared at a concentration 2 times the final reaction concentration.
(§1) Thereafter, a 384-well-plate was prepared, and 2.5 μl of each of the diluted compounds of Examples was added to a corresponding well of experimental group wells, and 2.5 μl of a 4% DMSO solution was dispensed into high control wells and low control wells.
(§2) Thereafter, 2.5 μL of 0.4 nM RON was dispensed into each of the high control wells and the experimental group wells, and 2.5 μL of the 1× kinase reaction buffer was added to the low control wells, and all the wells were centrifuged at room temperature for 40 seconds at 1,000 RPM, and then incubated at room temperature for 20-30 minutes. Then, 5 uL of the substrate cocktail (2×) was dispensed into each well, and all the wells were centrifuged at room temperature for 40 seconds at 1,000 RPM, and then incubated at room temperature for 60 minutes. Thereafter, 5 uL of 30 mM EDTA was added to each well to terminate the reaction, and all the wells were then incubated again at room temperature for 5 minutes. Thereafter, 5 uL of a 4× phosphotyrosine antibody (Perkin Elmer) containing europium was added to each well, and all the wells were then incubated at room temperature for 60 minutes. After the incubation, the 384-well-plate was read with the Vison plate reader. In this case, the excitation wavelength was 340 nm, and the emission wavelength was 620 nm and 665 nm. The IC50 value of each compound of Examples was derived using the GraphPd Prism7 program.
(Time-resolved FRET reads energy transfer from a long-lived donor to a nearby acceptor.)

Experiment [2] deals with cMET (Homo sapiens, UniProt P08581). Nature of the experiment: Evaluation of inhibitory activity against MET (TR-FRET kinase assay). Type of experiment: biochemical. The conditions noted are these: cMET protein, TK peptide substrate. The procedure:
In addition, in order to measure the enzyme activity inhibition for cMET, the evaluation was performed in the same manner as the enzyme activity inhibition measurement experiment for RON.
Specifically, the compound was prepared to a concentration of 1 mM in 100% DMSO and was diluted 10 times in a stepwise manner through 3-fold dilution. The compound (2 ul) diluted in a stepwise manner was added to a 96-well-plate containing 48 ul of a 1× kinase reaction buffer (50 mM HEPES (pH 7.4), 0.05% BSA, 0.005% Tween-20, 1 mM DTT, 0.5 mM MnCl2, 20 mM MgCl2).
The cMET protein was diluted to a concentration of 263 nM in a cMET storage buffer (50 mM Tris-HCl (pH 7.5), 150 mM NaCl, 0.05% Brij35, 1 mM DTT, 10% Glycerol), and then diluted again to a concentration of 2 nM in a 1× kinase reaction buffer. As a substrate cocktail, a MET-specific substrate mixed solution (5 uM TK peptide, 10 mM ATP) was prepared at a concentration 2 times the final reaction concentration.
as §1
as §2, with “of 2” for “of 0.4”, “nM cMET” for “nM RON”, “the 1×kinase” for “the 1× kinase”, “of 90” for “of 30”

In general, IC50 refers to the concentration at which inhibition is half-maximal. Lower therefore signals greater potency in that assay.

Bounds are passed on as bounds.

Sequence of RON (Q04912 25-1400, species assumed): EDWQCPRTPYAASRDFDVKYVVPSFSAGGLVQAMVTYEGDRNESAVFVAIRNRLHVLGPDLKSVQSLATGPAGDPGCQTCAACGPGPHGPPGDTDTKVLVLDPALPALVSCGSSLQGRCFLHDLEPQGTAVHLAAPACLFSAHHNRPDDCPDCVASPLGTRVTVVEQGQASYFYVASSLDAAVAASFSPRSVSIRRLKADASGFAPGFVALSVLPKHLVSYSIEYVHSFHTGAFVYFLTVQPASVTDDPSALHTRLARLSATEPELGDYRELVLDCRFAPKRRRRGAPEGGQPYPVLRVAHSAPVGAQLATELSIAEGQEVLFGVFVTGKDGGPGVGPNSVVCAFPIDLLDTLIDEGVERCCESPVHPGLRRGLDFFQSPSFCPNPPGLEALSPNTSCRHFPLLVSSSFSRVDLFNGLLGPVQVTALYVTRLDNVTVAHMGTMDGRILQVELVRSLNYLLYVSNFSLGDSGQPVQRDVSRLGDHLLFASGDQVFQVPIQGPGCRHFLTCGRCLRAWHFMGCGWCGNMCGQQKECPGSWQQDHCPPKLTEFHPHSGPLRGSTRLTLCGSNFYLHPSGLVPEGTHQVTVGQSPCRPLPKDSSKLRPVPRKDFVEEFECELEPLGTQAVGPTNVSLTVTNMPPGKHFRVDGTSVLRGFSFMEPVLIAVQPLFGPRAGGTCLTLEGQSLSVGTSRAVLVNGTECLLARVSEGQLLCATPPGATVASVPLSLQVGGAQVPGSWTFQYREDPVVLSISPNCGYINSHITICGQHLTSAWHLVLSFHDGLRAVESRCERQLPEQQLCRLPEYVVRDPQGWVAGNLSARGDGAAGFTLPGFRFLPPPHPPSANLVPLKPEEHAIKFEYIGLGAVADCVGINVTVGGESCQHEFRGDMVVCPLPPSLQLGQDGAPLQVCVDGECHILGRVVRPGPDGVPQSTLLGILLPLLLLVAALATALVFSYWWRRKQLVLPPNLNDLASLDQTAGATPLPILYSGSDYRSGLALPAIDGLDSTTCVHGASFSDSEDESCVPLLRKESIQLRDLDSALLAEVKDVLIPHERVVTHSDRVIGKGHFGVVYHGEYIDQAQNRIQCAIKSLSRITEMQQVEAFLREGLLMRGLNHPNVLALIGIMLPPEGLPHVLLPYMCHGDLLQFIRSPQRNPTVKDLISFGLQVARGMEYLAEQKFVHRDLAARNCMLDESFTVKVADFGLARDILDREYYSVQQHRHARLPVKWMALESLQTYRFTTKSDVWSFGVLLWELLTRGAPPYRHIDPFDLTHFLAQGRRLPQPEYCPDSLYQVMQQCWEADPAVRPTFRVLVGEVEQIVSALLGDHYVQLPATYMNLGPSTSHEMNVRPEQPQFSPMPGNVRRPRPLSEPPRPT
Sequence of cMET (P08581 25-1390): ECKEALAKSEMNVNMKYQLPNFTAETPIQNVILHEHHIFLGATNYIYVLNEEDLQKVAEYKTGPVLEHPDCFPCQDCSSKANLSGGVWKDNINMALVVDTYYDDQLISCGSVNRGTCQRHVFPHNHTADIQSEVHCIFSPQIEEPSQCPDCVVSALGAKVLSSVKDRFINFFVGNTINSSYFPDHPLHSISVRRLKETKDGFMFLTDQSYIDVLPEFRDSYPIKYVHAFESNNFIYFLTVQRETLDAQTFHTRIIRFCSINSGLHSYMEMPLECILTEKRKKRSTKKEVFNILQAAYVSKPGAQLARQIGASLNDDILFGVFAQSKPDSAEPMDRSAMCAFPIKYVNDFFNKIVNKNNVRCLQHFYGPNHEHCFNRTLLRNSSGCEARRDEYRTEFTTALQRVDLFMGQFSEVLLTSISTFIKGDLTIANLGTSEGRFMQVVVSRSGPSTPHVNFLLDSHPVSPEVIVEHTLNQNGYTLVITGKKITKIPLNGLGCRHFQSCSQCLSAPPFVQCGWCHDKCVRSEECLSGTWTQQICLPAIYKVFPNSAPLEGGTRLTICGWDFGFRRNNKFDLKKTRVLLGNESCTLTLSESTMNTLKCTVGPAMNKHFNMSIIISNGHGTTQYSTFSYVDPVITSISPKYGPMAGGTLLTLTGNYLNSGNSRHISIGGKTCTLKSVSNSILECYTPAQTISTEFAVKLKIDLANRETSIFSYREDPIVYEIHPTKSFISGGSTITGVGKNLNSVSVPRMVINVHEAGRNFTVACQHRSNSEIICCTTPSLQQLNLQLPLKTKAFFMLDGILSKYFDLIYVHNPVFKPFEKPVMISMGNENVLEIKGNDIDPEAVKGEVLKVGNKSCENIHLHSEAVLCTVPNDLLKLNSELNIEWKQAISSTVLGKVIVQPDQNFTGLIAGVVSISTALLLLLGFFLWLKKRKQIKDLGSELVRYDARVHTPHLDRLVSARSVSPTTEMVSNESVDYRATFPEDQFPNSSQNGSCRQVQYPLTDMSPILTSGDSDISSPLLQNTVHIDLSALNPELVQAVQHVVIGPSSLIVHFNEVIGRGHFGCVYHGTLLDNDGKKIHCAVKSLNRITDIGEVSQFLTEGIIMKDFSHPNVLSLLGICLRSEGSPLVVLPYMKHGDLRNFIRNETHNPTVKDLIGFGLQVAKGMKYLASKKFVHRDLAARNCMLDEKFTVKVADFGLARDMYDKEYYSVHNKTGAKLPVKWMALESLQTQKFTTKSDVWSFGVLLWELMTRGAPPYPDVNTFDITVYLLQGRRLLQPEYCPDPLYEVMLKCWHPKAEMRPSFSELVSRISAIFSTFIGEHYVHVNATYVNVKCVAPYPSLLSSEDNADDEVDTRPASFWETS

For `Nc1cc(Oc2ccc(NC(=O)c3cnn(-c4ccccc4)c3C(F)(F)F)cc2F)ccn1` [Example 44, N-(4-((2-aminopyridin-4-yl)oxy)-3-fluorophenyl)-1-phenyl-5-(trifluoromethyl)-1H-pyrazole-4-carboxamide], the half-maximal inhibitory concentration (IC50) in experiment [1] is 0.05 to 0.5 µM; in experiment [2] it was over 5 µM.
On to `Nc1nccc(Oc2ccc(NC(=O)c3cnn(-c4ccccc4)c3C(F)(F)F)c(F)c2)c1Cl` [Example 45, N-(4-((2-amino-3-chloropyridin-4-yl)oxy)-2-fluorophenyl)-1-phenyl-5-(trifluoromethyl)-1H-pyrazole-4-carboxamide], for which the IC50 in experiment [1] was 0.05 to 0.5 µM; in experiment [2], over 5 µM.
Consider `Nc1ncnc(Oc2ccc(NC(=O)c3cnn(-c4ccccc4)c3C(F)(F)F)cc2F)c1Cl` [Example 46, N-(4-((6-amino-5-chloro-pyrimidin-4-yl)oxy)-3-fluorophenyl)-1-phenyl-5-(trifluoromethyl)-1H-pyrazole-4-carboxamide], for which the IC50 in experiment [1] was 0.05 to 0.5 µM; in experiment [2], over 5 µM.
For `CCc1c(C(=O)Nc2ccc(Oc3ncnc(N)c3Cl)c(F)c2)cnn1-c1ccccc1` [Example 47], in that order: 0.05 to 0.5 µM and over 5 µM.
For the compound `Cc1nn(-c2ccccc2)c(C)c1C(=O)Nc1ccc(Oc2ncnc(N)c2Cl)c(F)c1` [Example 48, N-(4-((6-amino-5-chloro-pyrimidin-4-yl)oxy)-3-fluorophenyl)-3,5-dimethyl-1-phenyl-1H-pyrazole-4-carboxamide], the half-maximal inhibitory concentration (IC50) in experiment [1] is 0.05 to 0.5 µM; in experiment [2] it was over 5 µM.
Regarding `Cc1ccc(-n2ncc(C(=O)Nc3ccc(Oc4ncnc(N)c4Cl)c(F)c3)c2C(F)(F)F)cc1` [Example 49], the half-maximal inhibitory concentration (IC50) in experiment [1] and in experiment [2] was over 5 µM in each case.
On to `Nc1ncnc(Oc2ccc(NC(=O)c3cnn(C4CCCOC4)c3C(F)(F)F)cc2F)c1Cl` (stereo not shown) [Example 50], for which the half-inhibitory concentration (IC50) in experiment [1] is 0.5 to 5 µM; in experiment [2] it was over 5 µM.
Turning to `Nc1ncnc(Oc2ccc(NC(=O)c3cnn(C4CCCCC4)c3C(F)(F)F)cc2F)c1Cl` [Example 51], the values for the IC50 in experiment [1] and in experiment [2] were 0.05 to 0.5 µM and over 5 µM, respectively.
With `Nc1ncnc(Oc2ccc(NC(=O)c3cnn(-c4ccccc4F)c3C(F)(F)F)cc2F)c1Cl` [Example 52, N-[4-(6-amino-5-chloro-pyrimidin-4-yl)oxy-3-fluorophenyl]-1-(2-fluorophenyl)-5-(trifluoromethyl)pyrazole-4-carboxamide], the figures for the IC50 in experiment [1] and in experiment [2] were 0.05 to 0.5 µM and 0.5 to 5 µM, respectively.
For `Nc1ncnc(Oc2ccc(NC(=O)c3ccn(-c4ccccc4)n3)cc2F)c1Cl` [Example 53, N-[4-(6-amino-5-chloro-pyrimidin-4-yl)oxy-3-fluorophenyl]-1-phenyl-pyrazole-3-carboxamide], in that order: 0.5 to 5 µM and over 5 µM.
`Nc1ncnc(Oc2ccc(NC(=O)c3cn(-c4ccccc4)nn3)cc2F)c1Cl` [Example 54, N-[4-(6-amino-5-chloro-pyrimidin-4-yl)oxy-3-fluorophenyl]-1-phenyl-triazole-4-carboxamide]: the 50% inhibitory concentration (IC50) in experiment [1] and in experiment [2] was over 5 µM each time.
Turning to `Cc1c(C(=O)Nc2ccc(Oc3ncnc(N)c3Cl)c(F)c2)nnn1-c1ccccc1` [Example 55, N-[4-(6-amino-5-chloro-pyrimidin-4-yl)oxy-3-fluorophenyl]-5-methyl-1-phenyl-triazole-4-carboxamide], the IC50 in experiment [1] and in experiment [2] was over 5 µM in each case.
Consider `Cc1c(C(=O)Nc2ccc(Oc3ncnc(N)c3Cl)c(F)c2)nnn1-c1ccccc1F` [Example 56, N-[4-(6-amino-5-chloro-pyrimidin-4-yl)oxy-3-fluorophenyl]-1-(2-fluorophenyl)-5-methyl-triazole-4-carboxamide], for which the concentration for half-maximal inhibition (IC50) in experiment [1] is 0.05 to 0.5 µM; in experiment [2], over 5 µM.
In the case of `Nc1ncnc(Oc2ccc(NC(=O)c3cnn(-c4ccccc4)c3)cc2F)c1Cl` [Example 57, N-(4-((6-amino-5-chloro-pyrimidin-4-yl)oxy)-3-fluorophenyl)-1-phenyl-1H-pyrazole-4-carboxamide], the IC50 in experiment [1] and in experiment [2] was over 5 µM each time.
Consider `CC(C)(C)n1ncc(C(=O)Nc2ccc(Oc3ncnc(N)c3Cl)c(F)c2)c1C(F)(F)F` [Example 58, N-[4-(6-amino-5-chloro-pyrimidin-4-yl)oxy-3-fluorophenyl]-1-tert-butyl-5-(trifluoromethyl)pyrazole-4-carboxamide], for which the results for the IC50 in experiment [1] and in experiment [2] were 0.5 to 5 µM and over 5 µM, respectively.
`Nc1ncnc(Oc2ccc(NC(=O)c3cnn(-c4ccccc4)c3-c3ccccc3)cc2F)c1Cl` [Example 59, N-[4-(6-amino-5-chloro-pyrimidin-4-yl)oxy-3-fluorophenyl]-1,5-diphenyl-pyrazole-4-carboxamide]: the results for the IC50 in experiment [1] and in experiment [2] were 0.05 to 0.5 µM and 0.5 to 5 µM, respectively.
On to `CN1CCCC(n2ncc(C(=O)Nc3ccc(Oc4ncnc(N)c4Cl)c(F)c3)c2C(F)(F)F)C1` (stereo not shown) [Example 60, N-[4-(6-amino-5-chloro-pyrimidin-4-yl)oxy-3-fluorophenyl]-1-(1-methyl-3-piperidyl)-5-(trifluoromethyl)pyrazole-4-carboxamide], for which the IC50 is 0.5 to 5 µM in experiment [1] and over 5 µM in experiment [2].
In the case of `Cc1nc(-c2ccccc2)sc1C(=O)Nc1ccc(Oc2ncnc(N)c2Cl)c(F)c1` [Example 61, N-[4-(6-amino-5-chloro-pyrimidin-4-yl)oxy-3-fluorophenyl]-4-methyl-2-phenyl-thiazole-5-carboxamide], the IC50 in experiment [1] is 0.5 to 5 µM; in experiment [2], over 5 µM.
In the same order, the values of `O=C(Nc1ccc(Oc2ncnc(NC3CC3)c2Cl)c(F)c1)c1cnn(-c2ccccc2)c1C(F)(F)F` [Example 62, N-(4-((5-chloro-6-(cyclopropylamino)pyrimidin-4-yl)oxy)-3-fluorophenyl)-1-phenyl-5-(trifluoromethyl)-1H-pyrazole-4-carboxamide] are over 5 µM and over 5 µM.
With `Nc1ncnc(Oc2ccc(NC(=O)c3ncn(-c4ccccc4)c3C(F)(F)F)cc2F)c1Cl` [Example 63, N-[4-(6-amino-5-chloro-pyrimidin-4-yl)oxy-3-fluorophenyl]-1-phenyl-5-(trifluoromethyl)imidazole-4-carboxamide], the IC50 in experiment [1] was 0.05 to 0.5 µM; in experiment [2] it was over 5 µM.
